Measured values published in patent US9169205B2, “Pyrrolidine derivatives, pharmaceutical compositions and uses thereof” (Boehringer Ingelheim International GmbH, priority 2012, dated 2015).
pIC50: −log10 of the molar value.

Target: human ACC2 (Homo sapiens (Human), UniProt O00763)
Experiment: ACC2 assay (spectrophotometric 384 well assay, NADH-linked kinetic method)
Assay type: biochemical
Conditions: hACC2 construct lacking 128 N-terminal amino acids, 25° C., 340 nm
Outline: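 Baculovirus/insect-cell human ACC2, anion-exchange purified; ADP formation coupled to pyruvate kinase/lactate dehydrogenase, NADH loss followed at 340 nm, 25° C, 15 min. Final 200 μM NADH and acetyl-CoA, 500 uM ATP; vehicle and no-acetyl-CoA wells set 100% and 0%.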

human ACC2, sequence (O00763 129-2458): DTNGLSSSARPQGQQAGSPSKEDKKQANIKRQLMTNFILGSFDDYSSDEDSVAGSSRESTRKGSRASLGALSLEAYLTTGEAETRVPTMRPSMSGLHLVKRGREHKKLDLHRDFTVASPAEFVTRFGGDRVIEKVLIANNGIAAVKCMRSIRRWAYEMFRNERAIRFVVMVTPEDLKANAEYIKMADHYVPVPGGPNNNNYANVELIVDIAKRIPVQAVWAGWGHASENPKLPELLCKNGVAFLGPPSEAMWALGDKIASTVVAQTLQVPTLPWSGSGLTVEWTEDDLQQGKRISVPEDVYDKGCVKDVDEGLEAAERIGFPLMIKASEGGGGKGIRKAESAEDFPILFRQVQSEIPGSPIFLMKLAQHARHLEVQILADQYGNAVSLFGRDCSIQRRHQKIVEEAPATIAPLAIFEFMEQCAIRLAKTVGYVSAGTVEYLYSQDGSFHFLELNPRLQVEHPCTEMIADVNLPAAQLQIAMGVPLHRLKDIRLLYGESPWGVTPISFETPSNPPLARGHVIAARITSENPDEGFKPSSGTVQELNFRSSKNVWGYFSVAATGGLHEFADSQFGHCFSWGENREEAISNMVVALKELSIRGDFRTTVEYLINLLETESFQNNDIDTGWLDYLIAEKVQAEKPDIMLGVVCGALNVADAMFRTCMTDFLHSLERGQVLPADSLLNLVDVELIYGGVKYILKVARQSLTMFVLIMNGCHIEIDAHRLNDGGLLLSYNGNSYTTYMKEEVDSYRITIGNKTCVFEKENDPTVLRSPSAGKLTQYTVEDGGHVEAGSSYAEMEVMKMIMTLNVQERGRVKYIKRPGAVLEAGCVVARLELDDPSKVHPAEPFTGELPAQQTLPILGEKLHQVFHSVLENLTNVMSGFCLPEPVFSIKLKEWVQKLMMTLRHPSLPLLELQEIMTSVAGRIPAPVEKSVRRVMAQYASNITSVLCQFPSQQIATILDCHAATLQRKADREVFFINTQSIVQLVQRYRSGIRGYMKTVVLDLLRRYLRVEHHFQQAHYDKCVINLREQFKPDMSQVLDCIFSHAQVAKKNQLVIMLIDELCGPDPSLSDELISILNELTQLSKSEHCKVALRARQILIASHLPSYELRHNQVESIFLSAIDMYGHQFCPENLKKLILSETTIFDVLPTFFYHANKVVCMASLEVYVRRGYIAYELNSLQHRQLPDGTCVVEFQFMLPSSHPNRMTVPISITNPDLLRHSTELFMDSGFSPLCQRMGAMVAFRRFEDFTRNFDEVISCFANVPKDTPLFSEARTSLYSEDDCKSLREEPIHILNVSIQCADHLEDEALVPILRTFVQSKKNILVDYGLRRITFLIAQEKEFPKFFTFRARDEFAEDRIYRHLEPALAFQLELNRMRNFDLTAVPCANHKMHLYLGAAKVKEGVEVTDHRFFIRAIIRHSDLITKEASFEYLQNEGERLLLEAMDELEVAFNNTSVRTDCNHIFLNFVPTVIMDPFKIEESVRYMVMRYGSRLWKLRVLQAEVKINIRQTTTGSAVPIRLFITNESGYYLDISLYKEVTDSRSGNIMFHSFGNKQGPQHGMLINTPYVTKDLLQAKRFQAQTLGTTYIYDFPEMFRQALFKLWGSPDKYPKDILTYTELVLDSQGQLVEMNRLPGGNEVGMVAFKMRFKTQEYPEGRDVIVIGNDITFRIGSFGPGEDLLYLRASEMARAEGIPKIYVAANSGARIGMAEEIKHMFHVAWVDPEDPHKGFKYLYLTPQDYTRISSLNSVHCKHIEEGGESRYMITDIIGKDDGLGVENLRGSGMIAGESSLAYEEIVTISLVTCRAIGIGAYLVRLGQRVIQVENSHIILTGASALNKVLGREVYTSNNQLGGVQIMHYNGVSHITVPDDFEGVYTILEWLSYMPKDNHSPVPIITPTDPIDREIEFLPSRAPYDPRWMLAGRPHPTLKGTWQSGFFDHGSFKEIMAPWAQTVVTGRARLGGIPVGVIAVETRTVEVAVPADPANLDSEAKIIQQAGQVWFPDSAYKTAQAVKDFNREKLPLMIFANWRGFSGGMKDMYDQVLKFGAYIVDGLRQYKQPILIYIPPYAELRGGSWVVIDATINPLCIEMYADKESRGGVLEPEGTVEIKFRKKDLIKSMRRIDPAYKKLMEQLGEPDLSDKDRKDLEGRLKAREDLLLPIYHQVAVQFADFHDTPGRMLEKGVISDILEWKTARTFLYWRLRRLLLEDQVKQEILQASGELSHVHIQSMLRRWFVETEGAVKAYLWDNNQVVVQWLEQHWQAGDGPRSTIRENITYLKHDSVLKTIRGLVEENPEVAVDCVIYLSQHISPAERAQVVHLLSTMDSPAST

Row | SMILES | pIC50
1 | CNC(=O)N[C@@H](C)c1ccc(OC2CCN(c3ccc(OCC4CC4)cc3)C2)cc1 (stereo partly shown) [Example 3.8] | 7.14
2 | CNC(=O)N[C@@H](C)c1ccc(OC2CCN(c3ccc(OC(C)C)cc3)C2)cc1 (stereo partly shown) [Example 3.9] | 6.69
3 | CCNC(=O)N[C@@H](C)c1ccc(OC2CCN(c3ccc(OC(C)C)cc3)C2)cc1 (stereo partly shown) [Example 3.10] | 6.66
4 | CC(C)Oc1ccc(N2CCC(Oc3ccc([C@H](C)NC(=O)N4CCOCC4)cc3)C2)cc1 (stereo partly shown) [Example 3.12] | 5.89
5 | Cc1cc(OC2CC2)ccc1N1CCC(Oc2ccc([C@H](C)NC(=O)N3CCOCC3)cc2)C1 (stereo partly shown) [Example 3.13] | 6.06
6 | COCCCOc1ccc(N2CC[C@@H](Oc3ccc([C@H](C)NC(C)=O)cc3)C2)cc1 [Example 4.1, N—((S)-1-(4-((R)-1-(4-(3-methoxypropoxy)phenyl)pyrrolidin-3-yloxy)phenyl)ethyl)-acetamide] | 6.34
7 | CCOC(=O)C1(Oc2ccc(N3CCC(Oc4ccc([C@H](C)NC(C)=O)cc4)C3)cc2)CCC1 (stereo partly shown) [Example 4.2] | 6.51
8 | CCC(C)Oc1ccc(N2CCC(Oc3ccc([C@H](C)NC(C)=O)cc3)C2)cc1 (stereo partly shown) [Example 4.3] | 6.77
9 | COCCOc1ccc(N2CCC(Oc3ccc([C@H](C)NC(C)=O)cc3)C2)cc1 (stereo partly shown) [Example 4.4] | 6.25
10 | CC(=O)N[C@@H](C)c1ccc(OC2CCN(c3ccc(OCc4ccccc4)cc3)C2)cc1 (stereo partly shown) [Example 4.5] | 6.18
11 | CC(=O)N[C@@H](C)c1ccc(OC2CCN(c3ccc(OCC(F)F)cc3)C2)cc1 (stereo partly shown) [Example 4.6] | 6.44
12 | CC(=O)N[C@@H](C)c1ccc(OC2CCN(c3ccc(OCC(F)(F)C(F)F)cc3)C2)cc1 (stereo partly shown) [Example 4.7] | 6.20
13 | C[C@H](NC(=O)C(F)(F)F)c1ccc(O[C@@H]2CCN(c3ccc(OCC4CC4)cc3)C2)cc1 [Example 6, N—((S)-1-(4-((R)-1-(4-(Cyclopropylmethoxy)phenyl)pyrrolidin-3-yloxy)phenyl)-ethyl)-2,2,2-trifluoroacetamide] | 7.41
14 | C[C@H](NC(=O)C1CC[C@@H](N)C1)c1ccc(O[C@@H]2CCN(c3ccc(OCC4CC4)cc3)C2)cc1 (stereo partly shown) [Example 9] | 5.76
15 | CCOc1ccc(N2CC[C@@H](Oc3ccc([C@H](C)NC(=O)c4sc(NC(=O)CO)nc4C)cc3)C2)cc1 [Example 10, N—((S)-1-(4-((R)-1-(4-Ethoxyphenyl)pyrrolidin-3-yloxy)phenyl)-ethyl)-2-(2-hydroxyacetamido)-4-methylthiazole-5-carboxamide] | 6.79

Second part, the compound after the results:

Row | pIC50 | SMILES
16 | 7.31 | COC(=O)N[C@@H](C)c1ccc(O[C@@H]2CCN(c3ccc(OCC4CC4)cc3)C2)cc1 [Example 5.1, Methyl-(S)-1-(4-((R)-1-(4-(cyclopropylmethoxy)phenyl)pyrrolidin-3-yloxy)phenyl)-ethylcarbamate]
17 | 5.75 | CC(=O)N[C@@H](C)c1ccc(OC2CCN(c3ccc(OCC4CC4)cc3)C2)cn1 (stereo partly drawn) [Example 7.1, N—((S)-1-(5-((R)-1-(4-(Cyclopropylmethoxy)phenyl)pyrrolidin-3-ylox)pyridin-2-yl)ethyl)acetamide]
18 | 6.12 | CC(=O)NC(C)c1ccc(OC2CCN(c3ccc(OCC4CC4)cc3)C2)cc1F (stereo not shown) [Example 7.2]
19 | 6.70 | CC(=O)NC(C)c1ccc(OC2CCN(c3ccc(OCC4CC4)cc3)C2)c(F)c1 (stereo not shown) [Example 7.3]
20 | 6.43 | C[C@H](NC(=O)C1CC1)c1ccc(O[C@@H]2CCN(c3ccc(OCC4CC4)cc3)C2)cc1 [Example 8.1, N—((S)-1-(4-((R)-1-(4-(Cyclopropylmethoxy)phenyl)pyrrolidin-3-yloxy)phenyl)-ethyl)-cyclopropanecarboxamide]
21 | 6.44 | CC(=O)Nc1cc(C(=O)N[C@@H](C)c2ccc(OC3CCN(c4ccc(OCC5CC5)cc4)C3)cc2)on1 (stereo partly shown) [Example 8.2]
22 | 7.21 | C[C@H](NC(=O)c1ccno1)c1ccc(O[C@@H]2CCN(c3ccc(OCC4CC4)cc3)C2)cc1 [Example 8.3]
